Patent US8524765B2, “Compounds that modulate intracellular calcium” (Calcimedica, Inc., priority 2007, dated 2013)
“Also recorded” adds a separate entry of the source.

What was measured:
[1] = tested on: HEK[STIM1] cells; test: STIM1-dependent Ca2+ entry in STIM1-overexpressing cells; format: cell-based, human; settings: HEK293 overexpressing STIM1, no Tg store depletion; FIG. 13
Experimental: To test whether the Ca^2+ entry pathway activated by STIM1 overexpression is pharmacologically similar to endogenous SOCE, HEK[STIM1] cells were pre-incubated with increasing doses of 2-APB and STIM1-dependent Ca^2+ entry was measured.

[2] = tested on: RBL-2H3 cells; test: TNF-α release assay (ELISA); format: cell-based; settings: Rattus norvegicus; RBL-2H3 cells induced with TG/TPA; FIG. 3; read-out: IC50 for inhibition of TNF-alpha release
Experimental: To assess degranulation and cytokine release, RBL-2H3 cells were plated and stimulated with 20 nM thapsigargin/20 nM TPA for 20 hr in the presence or absence of compound of Formula (I) or Formula (II). Media was collected and assayed for the release of β-hexosaminidase or for the release of the inflammatory mediator cytokine TNF-α. The β-hexosaminidase enzymatic assay was performed by adding 200 μL 1 mM p-nitrophenyl-acetyl-glucosamide substrate (Sigma #N9376) in 0.05M Na Citrate (pH 4.5) to 50 μL of conditioned medium, incubating for 60 min at 37° C., then adding 500 μL 0.05M Na carbonate, 0.05M Na bicarbonate pH 10.5, mixing thoroughly, and reading the absorbance at 405 nm in a BioRad plate reader. The TNF-α release assay was performed using the Rat Tumor Necrosis Factor-a Ultrasensitive ELISA Kit from BioSource.

[3] = biological target: T1, hCav.1.2/β2/α2δ channels (Homo sapiens, UniProt Q13936); test: Cloned L-type calcium channels in CHO cells (PatchXpress patch clamp); format: cell-based; settings: FIG. 16
T1 construct: host or cells: CHO cells
T1 sequence (Q13936 whole entry): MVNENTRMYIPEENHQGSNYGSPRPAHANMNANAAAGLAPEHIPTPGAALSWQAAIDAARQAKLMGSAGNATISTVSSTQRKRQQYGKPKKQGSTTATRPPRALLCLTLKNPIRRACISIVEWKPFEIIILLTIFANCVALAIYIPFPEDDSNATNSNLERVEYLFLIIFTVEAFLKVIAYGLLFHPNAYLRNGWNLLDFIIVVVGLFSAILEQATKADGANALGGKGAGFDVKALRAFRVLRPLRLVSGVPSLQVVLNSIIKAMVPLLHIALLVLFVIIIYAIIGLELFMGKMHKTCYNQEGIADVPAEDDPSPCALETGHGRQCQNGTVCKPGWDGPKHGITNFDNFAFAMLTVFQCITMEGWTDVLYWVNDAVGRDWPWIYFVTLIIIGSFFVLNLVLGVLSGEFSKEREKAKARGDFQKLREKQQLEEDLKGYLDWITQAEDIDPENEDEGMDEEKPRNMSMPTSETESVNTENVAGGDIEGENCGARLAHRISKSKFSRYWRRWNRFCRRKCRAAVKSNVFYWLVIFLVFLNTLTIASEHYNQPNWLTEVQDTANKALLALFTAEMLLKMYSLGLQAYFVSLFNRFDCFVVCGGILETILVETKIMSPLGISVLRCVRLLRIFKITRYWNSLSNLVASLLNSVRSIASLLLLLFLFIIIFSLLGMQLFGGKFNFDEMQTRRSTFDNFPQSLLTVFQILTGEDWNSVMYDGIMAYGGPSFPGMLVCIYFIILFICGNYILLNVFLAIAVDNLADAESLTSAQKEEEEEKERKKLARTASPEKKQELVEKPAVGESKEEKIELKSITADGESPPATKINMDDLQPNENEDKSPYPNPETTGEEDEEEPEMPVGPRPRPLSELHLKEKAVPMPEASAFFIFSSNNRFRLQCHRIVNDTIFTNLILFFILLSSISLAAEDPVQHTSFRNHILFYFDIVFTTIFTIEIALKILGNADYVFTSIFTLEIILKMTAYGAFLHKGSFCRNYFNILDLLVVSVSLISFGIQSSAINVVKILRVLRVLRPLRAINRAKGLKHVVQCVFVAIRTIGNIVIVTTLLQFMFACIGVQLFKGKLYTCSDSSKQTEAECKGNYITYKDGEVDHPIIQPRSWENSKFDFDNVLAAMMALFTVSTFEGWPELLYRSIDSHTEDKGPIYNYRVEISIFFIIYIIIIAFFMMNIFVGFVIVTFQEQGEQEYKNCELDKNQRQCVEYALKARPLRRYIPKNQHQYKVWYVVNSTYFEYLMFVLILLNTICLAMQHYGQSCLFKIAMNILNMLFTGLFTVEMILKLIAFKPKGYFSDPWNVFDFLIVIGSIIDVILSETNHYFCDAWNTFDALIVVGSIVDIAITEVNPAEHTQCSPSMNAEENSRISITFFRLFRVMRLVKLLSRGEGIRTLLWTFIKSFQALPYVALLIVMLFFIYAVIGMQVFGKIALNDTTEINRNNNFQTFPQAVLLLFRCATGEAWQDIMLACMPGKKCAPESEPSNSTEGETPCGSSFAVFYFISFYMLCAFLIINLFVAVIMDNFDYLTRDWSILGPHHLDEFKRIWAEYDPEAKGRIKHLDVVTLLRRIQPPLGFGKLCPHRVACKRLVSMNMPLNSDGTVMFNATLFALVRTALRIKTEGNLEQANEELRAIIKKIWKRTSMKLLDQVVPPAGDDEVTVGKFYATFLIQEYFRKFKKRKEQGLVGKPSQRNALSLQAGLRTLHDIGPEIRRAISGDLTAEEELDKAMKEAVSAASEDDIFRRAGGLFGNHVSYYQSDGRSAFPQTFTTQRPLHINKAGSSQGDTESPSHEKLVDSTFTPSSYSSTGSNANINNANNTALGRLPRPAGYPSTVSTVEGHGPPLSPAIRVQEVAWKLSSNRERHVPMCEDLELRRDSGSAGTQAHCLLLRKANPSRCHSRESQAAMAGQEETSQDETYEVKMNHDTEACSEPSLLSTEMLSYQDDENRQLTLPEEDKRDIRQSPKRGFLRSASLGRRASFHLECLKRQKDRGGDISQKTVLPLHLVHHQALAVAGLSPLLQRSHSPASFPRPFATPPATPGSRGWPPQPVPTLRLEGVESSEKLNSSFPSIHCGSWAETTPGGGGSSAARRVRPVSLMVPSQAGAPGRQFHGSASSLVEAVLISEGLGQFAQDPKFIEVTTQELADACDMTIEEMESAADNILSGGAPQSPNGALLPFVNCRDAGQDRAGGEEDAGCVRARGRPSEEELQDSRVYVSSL
T1 sequence (Q08289 whole entry partner): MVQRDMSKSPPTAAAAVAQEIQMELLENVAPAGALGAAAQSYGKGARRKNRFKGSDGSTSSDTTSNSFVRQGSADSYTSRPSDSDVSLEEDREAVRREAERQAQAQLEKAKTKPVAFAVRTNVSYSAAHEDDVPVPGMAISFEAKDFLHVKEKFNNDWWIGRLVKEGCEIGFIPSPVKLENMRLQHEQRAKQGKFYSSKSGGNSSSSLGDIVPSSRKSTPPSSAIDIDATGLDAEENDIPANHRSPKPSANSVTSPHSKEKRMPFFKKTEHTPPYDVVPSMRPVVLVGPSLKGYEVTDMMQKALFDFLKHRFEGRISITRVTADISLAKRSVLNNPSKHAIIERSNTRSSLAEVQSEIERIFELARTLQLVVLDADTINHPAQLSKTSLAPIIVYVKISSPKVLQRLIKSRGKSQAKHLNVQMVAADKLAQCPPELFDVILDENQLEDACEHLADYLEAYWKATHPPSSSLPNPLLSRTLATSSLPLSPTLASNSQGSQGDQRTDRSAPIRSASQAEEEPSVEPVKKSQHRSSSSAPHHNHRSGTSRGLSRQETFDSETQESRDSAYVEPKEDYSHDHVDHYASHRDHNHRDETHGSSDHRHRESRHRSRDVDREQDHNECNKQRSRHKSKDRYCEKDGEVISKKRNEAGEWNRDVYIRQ
T1 sequence (P54289 25-1103 partner): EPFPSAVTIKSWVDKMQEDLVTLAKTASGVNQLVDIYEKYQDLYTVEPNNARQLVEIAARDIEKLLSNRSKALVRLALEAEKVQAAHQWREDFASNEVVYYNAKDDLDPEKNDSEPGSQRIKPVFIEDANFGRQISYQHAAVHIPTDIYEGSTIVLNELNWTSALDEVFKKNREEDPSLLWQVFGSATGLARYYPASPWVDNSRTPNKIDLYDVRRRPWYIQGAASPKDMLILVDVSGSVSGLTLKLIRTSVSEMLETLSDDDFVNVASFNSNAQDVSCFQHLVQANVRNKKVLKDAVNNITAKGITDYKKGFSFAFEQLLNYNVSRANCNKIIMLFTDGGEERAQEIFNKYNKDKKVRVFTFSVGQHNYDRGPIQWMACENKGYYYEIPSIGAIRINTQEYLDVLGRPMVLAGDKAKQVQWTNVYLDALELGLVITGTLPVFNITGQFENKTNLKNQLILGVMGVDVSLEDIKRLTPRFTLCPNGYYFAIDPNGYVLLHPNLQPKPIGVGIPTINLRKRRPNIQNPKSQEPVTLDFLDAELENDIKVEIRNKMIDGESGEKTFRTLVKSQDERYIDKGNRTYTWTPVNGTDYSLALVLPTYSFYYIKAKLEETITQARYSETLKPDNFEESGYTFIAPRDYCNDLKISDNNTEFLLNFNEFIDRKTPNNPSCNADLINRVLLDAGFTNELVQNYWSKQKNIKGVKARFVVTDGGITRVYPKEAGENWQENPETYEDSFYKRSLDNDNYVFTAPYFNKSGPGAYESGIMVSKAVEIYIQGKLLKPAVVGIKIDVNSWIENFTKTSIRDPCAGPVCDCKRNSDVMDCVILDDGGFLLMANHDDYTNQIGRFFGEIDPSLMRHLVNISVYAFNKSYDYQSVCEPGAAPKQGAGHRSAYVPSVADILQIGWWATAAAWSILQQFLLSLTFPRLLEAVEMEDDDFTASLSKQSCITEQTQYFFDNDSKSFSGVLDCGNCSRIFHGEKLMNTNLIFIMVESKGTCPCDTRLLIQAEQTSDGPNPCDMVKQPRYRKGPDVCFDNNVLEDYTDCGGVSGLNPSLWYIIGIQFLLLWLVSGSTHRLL
Experimental: Compound A stock solutions were prepared in dimethyl sulfoxide (DMSO) and stored frozen. Compound A concentrations were prepared fresh daily by diluting stock solutions into an appropriate HEPES-buffered physiological saline solution. Each test compound formulation was sonicated at room temperatrue for at least 20 minutes to facilitate dissolution. A glass-lined 96-well compound plate was loaded with the appropriate amounts of test and control solutions, and placed in the plate well of PatchXpress®. The effects of five concentrations were evaluated. Stock solutions of the positive control were prepared in batches and frozen. The positive control concentration was prepared fresh daily by diluting stock solutions into HB-PS. The final DMSO concentration was 0.3%.
Cells were maintained in tissue culture incubators per ChanTest SOP. […]
In preparation for a recording session, intracellular solution was loaded into the intracellular compartments of the planar electrode. After establishment of a whole-cell configuration, membrane currents were recorded using dual-channel patch clamp amplifiers in the PatchXpress® system. […] Onset and steady state block of hCav.1.2/β2/α2δ channels were measured using a stimulus voltage pattern consisting of a depolarizing test pulse at 10 s intervals from a −80 mV holding potential. […] Peak current was measured during the step to 10 mV. […]

IC50 [2]: 3.3 µM
Compound: O=C(Nc1scc(-c2ccc(Br)cc2)c1C(=O)O)c1ccc(F)cc1 [Compound 1, 2-(4-fluorobenzamido)-4-(4-bromophenyl)thiophene-3-carboxylic acid]
effect on STIM1-dependent Ca2+ entry [1]: concentration dependent inhibition; also recorded: blocked | effect on recombinant Cav1.2 L-type Ca2+ channels [3]: inhibits
